From BindingDB's records for doi:10.1021/jm060797q (Teikyo University, 2006) come the findings set out here.

The IC50 is the concentration that inhibits the measured activity by half. Lower therefore signals greater potency.

The test can be described thus: Antagonist activity against 1-alpha,25-dihydroxy vitamin D3-induced HL60 cell differentiation by NBT reduction method.
Consider `C=C1C(=O)O[C@@H](C[C@@H](C)[C@H]2CC[C@H]3/C(=C/C=C4/C[C@@H](O)C[C@H](O)C4=C)CCC[C@]23C)[C@@H]1CCC`, for which the IC50 turned out to be 6 nM. `C=C1/C(=C\C=C2/CCC[C@]3(C)[C@@H]([C@H](C)C[C@H]4OC(=O)C(=C)[C@@H]4CCC)CC[C@@H]23)C[C@@H](O)[C@H](C)[C@@H]1O` had an IC50 of 6.3 nM. The result for `C=C1/C(=C\C=C2/CCC[C@]3(C)[C@@H]([C@H](C)C[C@H]4OC(=O)C(=C)[C@@H]4CC)CC[C@@H]23)C[C@@H](O)[C@H](C)[C@@H]1O` reads 6.7 nM. The result for `C=C1/C(=C\C=C2/CCC[C@]3(C)[C@@H]([C@H](C)C[C@@H]4OC(=O)C(=C)[C@@H]4CCC)CC[C@@H]23)C[C@@H](O)C[C@@H]1O` reads 6 nM. For `C=C1C(=O)O[C@H](C[C@@H](C)[C@H]2CC[C@H]3/C(=C/C=C4/C[C@@H](O)C[C@H](O)C4=C)CCC[C@]23C)[C@@H]1CC(C)C` the value was 10 nM; for `C=C1/C(=C\C=C2/CCC[C@]3(C)[C@@H]([C@H](C)C[C@H]4OC(=O)C(=C)[C@@H]4CCCC)CC[C@@H]23)C[C@@H](O)C[C@@H]1O`, 8.2 nM. Consider `C=C1C(=O)O[C@H](C[C@@H](C)[C@H]2CC[C@H]3/C(=C/C=C4/C[C@@H](O)[C@H](OCCCO)[C@H](O)C4=C)CCC[C@]23C)[C@@H]1C`, for which the IC50 is 6.1 nM. For `C=C1/C(=C\C=C2/CCC[C@]3(C)[C@@H]([C@H](C)C[C@H]4OC(=O)C(=C)[C@@H]4C)CC[C@@H]23)C[C@@H](O)[C@H](C)[C@@H]1O` the value was 8.1 nM; for `C=C1C(=O)O[C@H](C[C@@H](C)[C@H]2CC[C@H]3/C(=C/C=C4/C[C@@H](O)[C@H](C)[C@H](O)C4=C)CCC[C@]23C)[C@@H]1C`, 8.1 nM. For `C=C1/C(=C\C=C2/CCC[C@]3(C)[C@@H]([C@H](C)C[C@@H]4OC(=O)C(=C)[C@H]4CCCC)CC[C@@H]23)C[C@@H](O)[C@H](OCCCO)[C@@H]1O` the value was 8.8 nM; for `C=C1/C(=C\C=C2/CCC[C@]3(C)[C@@H]([C@H](C)C[C@H]4OC(=O)C(=C)[C@H]4CCC)CC[C@@H]23)C[C@@H](O)[C@H](OCCCO)[C@@H]1O`, 6.3 nM. Take `C=C1/C(=C\C=C2/CCC[C@]3(C)[C@@H]([C@H](C)C[C@H]4OC(=O)C(=C)[C@H]4CCC)CC[C@@H]23)C[C@@H](O)[C@H](CCCO)[C@@H]1O`: the IC50 came to 6.3 nM. For `C=C1/C(=C\C=C2/CCC[C@]3(C)[C@@H]([C@H](C)C[C@@H]4OC(=O)C(=C)[C@H]4CC)CC[C@@H]23)C[C@@H](O)[C@H](OCCCO)[C@@H]1O` the value was 8.4 nM; for `C=C1/C(=C\C=C2/CCC[C@]3(C)[C@@H]([C@H](C)C[C@H]4OC(=O)C(=C)[C@@H]4C)CC[C@@H]23)C[C@@H](O)[C@H](CCCO)[C@@H]1O`, 6.2 nM. For `C=C1/C(=C\C=C2/CCC[C@]3(C)[C@@H]([C@H](C)C[C@H]4OC(=O)C(=C)[C@@H]4CCCC)CC[C@@H]23)C[C@@H](O)[C@H](CCCO)[C@@H]1O` the value was 8.8 nM; for `C=C1/C(=C\C=C2/CCC[C@]3(C)[C@@H]([C@H](C)C[C@@H]4OC(=O)C(=C)[C@H]4CC(C)C)CC[C@@H]23)C[C@@H](O)[C@H](OCCCO)[C@@H]1O`, 9.3 nM.

Take `C=C1C(=O)O[C@@H](C[C@@H](C)[C@H]2CC[C@H]3/C(=C/C=C4/C[C@@H](O)C[C@H](O)C4=C)CCC[C@]23C)[C@@H]1CCCC`: 8.2 nM corresponded to half-maximal inhibition (IC50). The IC50 values of the last two molecules are within 1.5-fold of each other. As for `C=C1C(=O)O[C@@H](C[C@@H](C)[C@H]2CC[C@H]3/C(=C/C=C4/C[C@@H](O)C[C@H](O)C4=C)CCC[C@]23C)[C@@H]1CC(C)C`, the IC50 is 9.3 nM. `C=C1/C(=C\C=C2/CCC[C@]3(C)[C@@H]([C@H](C)C[C@H]4OC(=O)C(=C)[C@@H]4C)CC[C@@H]23)C[C@@H](O)C[C@@H]1O`: it took 11 nM to reach half-maximal inhibition (IC50). As for `C=C1/C(=C\C=C2/CCC[C@]3(C)[C@@H]([C@H](C)C[C@H]4OC(=O)C(=C)[C@@H]4CC(C)C)CC[C@@H]23)C[C@@H](O)[C@H](CCCO)[C@@H]1O`, the IC50 worked out at 9.3 nM. This IC50 and that of the molecule before are within 1.5-fold of each other.

On to `C=C1/C(=C\C=C2/CCC[C@]3(C)[C@@H]([C@H](C)C[C@@H]4OC(=O)C(=C)[C@H]4CCC)CC[C@@H]23)C[C@@H](O)[C@H](C)[C@@H]1O`, for which the IC50 was determined as 6.3 nM. For the molecule `C=C1/C(=C\C=C2/CCC[C@]3(C)[C@@H]([C@H](C)C[C@H]4OC(=O)C(=C)[C@H]4CC)CC[C@@H]23)C[C@@H](O)[C@H](CCCO)[C@@H]1O`, the IC50 worked out at 8.4 nM. The result for `C=C1C(=O)O[C@@H](C[C@@H](C)[C@H]2CC[C@H]3/C(=C/C=C4/C[C@@H](O)C[C@H](O)C4=C)CCC[C@]23C)[C@@H]1CC` reads 8.6 nM; that for `C=C1/C(=C\C=C2/CCC[C@]3(C)[C@@H]([C@H](C)C[C@@H]4OC(=O)C(=C)[C@@H]4C)CC[C@@H]23)C[C@@H](O)[C@H](OCCCO)[C@@H]1O`, 6.1 nM. The result for `C=C1/C(=C\C=C2/CCC[C@]3(C)[C@@H]([C@H](C)C[C@@H]4OC(=O)C(=C)[C@H]4CC)CC[C@@H]23)C[C@@H](O)[C@H](C)[C@@H]1O` reads 6.7 nM; that for `C=C1/C(=C\C=C2/CCC[C@]3(C)[C@@H]([C@H](C)C[C@@H]4OC(=O)C(=C)[C@@H]4CC)CC[C@@H]23)C[C@@H](O)[C@H](CCCO)[C@@H]1O`, 8.4 nM. Consider `C=C1/C(=C\C=C2/CCC[C@]3(C)[C@@H]([C@H](C)C[C@@H]4OC(=O)C(=C)[C@@H]4CC(C)C)CC[C@@H]23)C[C@@H](O)[C@H](OCCCO)[C@@H]1O`, for which the IC50 came out at 9.3 nM. The result for `C=C1/C(=C\C=C2/CCC[C@]3(C)[C@@H]([C@H](C)C[C@@H]4OC(=O)C(=C)[C@@H]4C)CC[C@@H]23)C[C@@H](O)[C@H](CCCO)[C@@H]1O` reads 6.2 nM; that for `C=C1/C(=C\C=C2/CCC[C@]3(C)[C@@H]([C@H](C)C[C@@H]4OC(=O)C(=C)[C@@H]4CCC)CC[C@@H]23)C[C@@H](O)[C@H](OCCCO)[C@@H]1O`, 6.3 nM; that for `C=C1/C(=C\C=C2/CCC[C@]3(C)[C@@H]([C@H](C)C[C@@H]4OC(=O)C(=C)[C@H]4CCC)CC[C@@H]23)C[C@@H](O)[C@H](OCCCO)[C@@H]1O`, 6.3 nM. For `C=C1/C(=C\C=C2/CCC[C@]3(C)[C@@H]([C@H](C)C[C@H]4OC(=O)C(=C)[C@H]4CCCC)CC[C@@H]23)C[C@@H](O)[C@H](C)[C@@H]1O` the value was 6.7 nM. The result for `C=C1/C(=C\C=C2/CCC[C@]3(C)[C@@H]([C@H](C)C[C@H]4OC(=O)C(=C)[C@H]4CC)CC[C@@H]23)C[C@@H](O)[C@H](C)[C@@H]1O` reads 6.7 nM. `C=C1C(=O)O[C@@H](C[C@@H](C)[C@H]2CC[C@H]3/C(=C/C=C4/C[C@@H](O)[C@H](OCCCO)[C@H](O)C4=C)CCC[C@]23C)[C@@H]1C` gave an IC50 of 6.1 nM. With `C=C1/C(=C\C=C2/CCC[C@]3(C)[C@@H]([C@H](C)C[C@H]4OC(=O)C(=C)[C@H]4CC(C)C)CC[C@@H]23)C[C@@H](O)[C@H](OCCCO)[C@@H]1O`, the IC50 came out at 9.3 nM. The result for `C=C1/C(=C\C=C2/CCC[C@]3(C)[C@@H]([C@H](C)C[C@@H]4OC(=O)C(=C)[C@@H]4CCC)CC[C@@H]23)C[C@@H](O)[C@H](CCCO)[C@@H]1O` reads 6.3 nM. For the molecule `C=C1/C(=C\C=C2/CCC[C@]3(C)[C@@H]([C@H](C)C[C@H]4OC(=O)C(=C)[C@H]4CCC)CC[C@@H]23)C[C@@H](O)[C@H](C)[C@@H]1O`, half-maximal inhibition (IC50) required 6.3 nM. `C=C1/C(=C\C=C2/CCC[C@]3(C)[C@@H]([C@H](C)C[C@H]4OC(=O)C(=C)[C@H]4CC(C)C)CC[C@@H]23)C[C@@H](O)[C@H](CCCO)[C@@H]1O`: the IC50 was determined as 9.3 nM. For `C=C1C(=O)O[C@H](C[C@@H](C)[C@H]2CC[C@H]3/C(=C/C=C4/C[C@@H](O)C[C@H](O)C4=C)CCC[C@]23C)[C@@H]1CCC` the value was 6 nM; for `C=C1/C(=C\C=C2/CCC[C@]3(C)[C@@H]([C@H](C)C[C@H]4OC(=O)C(=C)[C@@H]4CC)CC[C@@H]23)C[C@@H](O)[C@H](OCCCO)[C@@H]1O`, 8.4 nM. Regarding `C=C1C(=O)O[C@@H](C[C@@H](C)[C@H]2CC[C@H]3/C(=C/C=C4/C[C@@H](O)C[C@H](O)C4=C)CCC[C@]23C)[C@@H]1C`, 7.7 nM corresponded to half-maximal inhibition (IC50).

`C=C1/C(=C\C=C2/CCC[C@]3(C)[C@@H]([C@H](C)C[C@@H]4OC(=O)C(=C)[C@@H]4CCC)CC[C@@H]23)C[C@@H](O)[C@H](C)[C@@H]1O` had an IC50 of 6.3 nM. The result for `C=C1/C(=C\C=C2/CCC[C@]3(C)[C@@H]([C@H](C)C[C@@H]4OC(=O)C(=C)[C@@H]4CC)CC[C@@H]23)C[C@@H](O)[C@H](OCCCO)[C@@H]1O` reads 8.4 nM. The result for `C=C1/C(=C\C=C2/CCC[C@]3(C)[C@@H]([C@H](C)C[C@H]4OC(=O)C(=C)[C@H]4CC(C)C)CC[C@@H]23)C[C@@H](O)[C@H](C)[C@@H]1O` reads 11 nM; that for `C=C1/C(=C\C=C2/CCC[C@]3(C)[C@@H]([C@H](C)C[C@@H]4OC(=O)C(=C)[C@@H]4CC(C)C)CC[C@@H]23)C[C@@H](O)[C@H](CCCO)[C@@H]1O`, 9.3 nM; that for `C=C1/C(=C\C=C2/CCC[C@]3(C)[C@@H]([C@H](C)C[C@H]4OC(=O)C(=C)[C@@H]4CC(C)C)CC[C@@H]23)C[C@@H](O)[C@H](C)[C@@H]1O`, 11 nM. The result for `C=C1/C(=C\C=C2/CCC[C@]3(C)[C@@H]([C@H](C)C[C@@H]4OC(=O)C(=C)[C@H]4CCCC)CC[C@@H]23)C[C@@H](O)[C@H](CCCO)[C@@H]1O` reads 8.8 nM; that for `C=C1C(=O)O[C@@H](C[C@@H](C)[C@H]2CC[C@H]3/C(=C/C=C4/C[C@@H](O)[C@H](CCCO)[C@H](O)C4=C)CCC[C@]23C)[C@@H]1C`, 6.2 nM; that for `C=C1/C(=C\C=C2/CCC[C@]3(C)[C@@H]([C@H](C)C[C@H]4OC(=O)C(=C)[C@H]4CCCC)CC[C@@H]23)C[C@@H](O)[C@H](CCCO)[C@@H]1O`, 8.8 nM. In turn, `C=C1/C(=C\C=C2/CCC[C@]3(C)[C@@H]([C@H](C)C[C@H]4OC(=O)C(=C)[C@H]4CCCC)CC[C@@H]23)C[C@@H](O)[C@H](OCCCO)[C@@H]1O` yielded a concentration for half-maximal inhibition (IC50) of 8.8 nM. Regarding `C=C1C[C@@H](C[C@@H](C)[C@H]2CC[C@H]3/C(=C/C=C4/C[C@@H](O)C[C@H](O)C4=C)CCC[C@]23C)OC1=O`, 6 nM corresponded to half-maximal inhibition (IC50). This IC50 and that of the molecule before are within 1.5-fold of each other. For `C=C1/C(=C\C=C2/CCC[C@]3(C)[C@@H]([C@H](C)C[C@H]4OC(=O)C(=C)[C@@H]4CC(C)C)CC[C@@H]23)C[C@@H](O)[C@H](OCCCO)[C@@H]1O` the value was 9.3 nM; for `C=C1/C(=C\C=C2/CCC[C@]3(C)[C@@H]([C@H](C)C[C@H]4OC(=O)C(=C)C4(C)C)CC[C@@H]23)C[C@@H](O)C[C@@H]1O`, 6 nM.
